The results in this text go back to US20090324754A1, “EUCALYPTUS EXTRACT, METHOD OF PREPARATION AND THERAPEUTIC USES THEREOF” (Pierre Fabre Medicament, priority 2006, published 2009).

This assay has as its target T1, serotonin reuptake (Rattus norvegicus, UniProt P31652).
T1 construct: Synapses obtained from rat brains; from tissue; host or cells: rat brain synapses (synaptosomes)
Description: Serotonin (5-HT) reuptake, [3H]-serotonin uptake in rat brain synapses. The class given is biochemical. The settings on record: 0.3 μg of extract/ml of solution.
Description: The uptake tests were carried out in vitro on synapses of rats.
The baseline activity is determined by incubating the same mixture for 15 minutes at 37° C. in the presence of 10 μM imipramine in order to block the reuptake.
Following the incubation, the samples are filtered rapidly in vacuo through glass-fibre filters (GB/B, Packard) and rinsed twice with ice-cold incubation buffer in order to eliminate free [^3H]-serotonin. The filters are dried and the retained radioactivity is measured by means of a scintillation counter (Topcount, Packard) using a scintillation cocktail (Microscint O, Packard).
The results are expressed as a percent inhibition of the control uptake of [^3H]-serotonin (see Table 1)

T1 sequence (P31652 whole entry): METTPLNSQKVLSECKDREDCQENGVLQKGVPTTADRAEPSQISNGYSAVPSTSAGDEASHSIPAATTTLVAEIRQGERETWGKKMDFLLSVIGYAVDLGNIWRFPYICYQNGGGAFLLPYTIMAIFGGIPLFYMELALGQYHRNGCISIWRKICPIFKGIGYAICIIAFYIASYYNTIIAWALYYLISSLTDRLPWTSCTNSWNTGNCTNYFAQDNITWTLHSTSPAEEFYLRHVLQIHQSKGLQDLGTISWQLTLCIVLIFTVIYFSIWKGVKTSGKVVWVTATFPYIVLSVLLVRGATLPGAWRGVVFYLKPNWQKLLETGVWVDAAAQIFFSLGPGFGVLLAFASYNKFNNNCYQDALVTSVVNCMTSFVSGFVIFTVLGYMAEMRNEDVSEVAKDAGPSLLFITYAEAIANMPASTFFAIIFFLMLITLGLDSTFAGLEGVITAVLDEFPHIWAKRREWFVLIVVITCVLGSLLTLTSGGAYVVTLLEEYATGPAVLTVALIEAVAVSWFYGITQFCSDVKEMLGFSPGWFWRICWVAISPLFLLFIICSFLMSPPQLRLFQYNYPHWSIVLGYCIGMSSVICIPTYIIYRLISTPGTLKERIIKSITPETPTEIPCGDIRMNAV

Take `C=C1CCC2C(C3C1CCC3(C)C(CC(C)C)c1c(O)c(C=O)c(O)c(C=O)c1O)C2(C)C` (stereo not shown) [Macrocarpal G, 5-(1-(3,3,11-trimethyl-7-methylene-tricyclo(6.3.0.0(2,4))undec-11-yl)-3-methylbutyl)-2,4,6-trihydroxybenzene-1,3-dicarbaldehyde]: the “% inhibition of serotonin reuptake” value was 103.8%.
